Assay results published in patent US10414769B2, “5,8-dimethyl-9-phenyl-5,8-dihydro-6H-pyrazolo[3,4-h]quinazolin-2-yl)-(1H-pyrazol-3-yl)-amines as IGF-1R/IR inhibitors” (Boehringer Ingelheim International GmbH, priority 2015, dated 2019).

Columns and labels:
EPHB2 = target: T1, EPHB2 (Homo sapiens, UniProt P29323); experiment: Z'-LYTE kinase selectivity assay EPHB2; type: biochemical
T1 construct: purchased Life Technologies PV 3625
T1 sequence (P29323 19-1055): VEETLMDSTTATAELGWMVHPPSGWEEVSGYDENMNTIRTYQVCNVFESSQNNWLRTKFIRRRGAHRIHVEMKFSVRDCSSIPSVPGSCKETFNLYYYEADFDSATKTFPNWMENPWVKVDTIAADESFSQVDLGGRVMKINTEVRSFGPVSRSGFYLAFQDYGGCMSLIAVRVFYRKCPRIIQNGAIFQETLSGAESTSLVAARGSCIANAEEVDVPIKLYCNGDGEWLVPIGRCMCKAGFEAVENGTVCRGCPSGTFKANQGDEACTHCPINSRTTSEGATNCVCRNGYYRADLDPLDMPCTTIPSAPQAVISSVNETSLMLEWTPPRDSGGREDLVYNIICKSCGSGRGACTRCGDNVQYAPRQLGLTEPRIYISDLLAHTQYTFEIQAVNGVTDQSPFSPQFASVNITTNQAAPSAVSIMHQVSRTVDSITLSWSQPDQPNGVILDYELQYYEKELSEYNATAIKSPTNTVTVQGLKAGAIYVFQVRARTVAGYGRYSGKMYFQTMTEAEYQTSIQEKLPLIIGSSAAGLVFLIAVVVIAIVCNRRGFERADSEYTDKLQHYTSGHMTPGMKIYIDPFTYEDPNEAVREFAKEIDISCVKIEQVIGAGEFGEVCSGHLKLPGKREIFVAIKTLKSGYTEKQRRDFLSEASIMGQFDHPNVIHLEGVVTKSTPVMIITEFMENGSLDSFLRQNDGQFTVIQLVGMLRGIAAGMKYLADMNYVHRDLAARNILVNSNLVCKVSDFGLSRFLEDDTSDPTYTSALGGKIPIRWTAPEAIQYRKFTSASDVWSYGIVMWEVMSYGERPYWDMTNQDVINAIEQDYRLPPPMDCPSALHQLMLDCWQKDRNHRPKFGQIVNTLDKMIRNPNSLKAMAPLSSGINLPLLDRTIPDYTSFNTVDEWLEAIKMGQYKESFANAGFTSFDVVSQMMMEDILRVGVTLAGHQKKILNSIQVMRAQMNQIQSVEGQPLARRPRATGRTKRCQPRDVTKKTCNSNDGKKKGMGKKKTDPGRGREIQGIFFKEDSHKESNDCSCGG
Description: (§1) In order to compare the kinase selectivity of compounds (I) according to the invention with known prior art compounds the commercially provided SelectScreen® Kinase Profiling Service (Z′-LYTE®) was used (Life Technologies GmbH, Darmstadt, Germany) to investigate the ability of the compounds to inhibit a number of different, representatively selected human kinases. Further details regarding this service are available on the Life Technologies website at
(§2) The Z′-LYTE® biochemical assay employs a fluorescence-based, coupled-enzyme format and is based on the differential sensitivity of phosphorylated and non-phosphorylated peptides to proteolytic cleavage. The peptide substrate is labeled with two fluorophores—one at each end—that make up a FRET pair.
(§3) In the primary reaction, the kinase transfers the gamma-phosphate of ATP to a single tyrosine, serine or threonine residue in a synthetic FRET-peptide. In the secondary reaction, a site-specific protease recognizes and cleaves non-phosphorylated FRET-peptides. Phosphorylation of FRET-peptides suppresses cleavage by the Development Reagent. Cleavage disrupts FRET between the donor (i.e., coumarin) and acceptor (i.e., fluorescein) fluorophores on the FRET-peptide, whereas uncleaved, phosphorylated FRET-peptides maintain FRET. A ratiometric method, which calculates the ratio (the Emission Ratio) of donor emission to acceptor emission after excitation of the donor fluorophore at 400 nm, is used to quantitate reaction progress, as shown in the equation below.
(§4) The Test Compounds are screened at 1 μM.
The 2×EPHB2 (# PV 3625)/Tyr 02 (Z′-LYTE® Kinase Assay Kit—Tyrosine 2 Peptide, # PV 3191) mixture is prepared in 50 mM HEPES pH 7.5, 0.01% BRIJ-35, 10 mM MgCl2, 1 mM EGTA. The final 10 μL Kinase Reaction consists of 0.55-36 ng EPHB2 and 2 μM Tyr 02 in 50 mM HEPES pH 7.5, 0.01% BRIJ-35, 10 mM MgCl2, 1 mM EGTA. After the 1 hour Kinase Reaction incubation, 5 μL of a 1:128 dilution of Development Reagent A is added.

STK3 (MST2) = target: T2, STK3 (MST2) (Homo sapiens, UniProt Q13188); experiment: Z'-LYTE kinase selectivity assay STK3; type: biochemical
T2 construct: purchased Life Technologies PV 4805
T2 sequence (Q13188 1-491): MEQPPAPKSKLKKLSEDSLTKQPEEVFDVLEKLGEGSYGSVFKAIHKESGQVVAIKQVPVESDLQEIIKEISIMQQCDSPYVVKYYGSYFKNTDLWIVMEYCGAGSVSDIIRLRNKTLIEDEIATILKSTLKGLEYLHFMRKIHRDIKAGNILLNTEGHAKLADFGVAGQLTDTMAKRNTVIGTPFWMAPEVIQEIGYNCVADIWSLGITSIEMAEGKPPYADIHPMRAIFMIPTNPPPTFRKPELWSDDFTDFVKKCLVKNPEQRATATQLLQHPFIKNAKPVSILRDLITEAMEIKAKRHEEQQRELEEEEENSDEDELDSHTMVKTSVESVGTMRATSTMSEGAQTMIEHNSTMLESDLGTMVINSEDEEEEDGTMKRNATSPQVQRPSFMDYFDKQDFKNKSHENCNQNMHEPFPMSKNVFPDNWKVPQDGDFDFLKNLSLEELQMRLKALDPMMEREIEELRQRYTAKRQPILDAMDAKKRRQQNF
Description: as §1, §2, §3, §4
The 2×STK3 (MST2) (# PV 4805)/Ser/Thr 07 (Z′-LYTE® Kinase Assay Kit—Ser/Thr 7 Peptide, # PV 3180) mixture is prepared in 50 mM HEPES pH 6.5, 0.01% BRIJ-35, 10 mM MgCl2, 1 mM EGTA, 0.02% NaN3. The final 10 μL Kinase Reaction consists of 6.25-38.7 ng STK3 (MST2) and 2 μM Ser/Thr 07 in 50 mM HEPES pH 7.0, 0.01% BRIJ-35, 10 mM MgCl2, 1 mM EGTA, 0.01% NaN3. After the 1 hour Kinase Reaction incubation, 5 μL of a 1:65000 dilution of Development Reagent A is added.

inhibition at 1 µM (EPHB2)	inhibition at 1 µM (STK3 (MST2))	SMILES
64%	1%	C[C@@H]1Cc2nn(C)c(-c3ccccc3)c2-c2nc(Nc3ccn(CCN4CCN(C)CC4)n3)ncc21 [Compound I-1]
68%	5%	C[C@@H]1Cc2nn(C)c(-c3ccccc3)c2-c2nc(Nc3ccn(CCN4CCOCC4)n3)ncc21 [Compound I-2]
77%	-1%	C[C@@H]1Cc2nn(C)c(-c3ccccc3)c2-c2nc(Nc3ccn(CCN4CCN(CC(C)(C)O)CC4)n3)ncc21 [Compound I-3]
82%	15%	CC(O)CN1CCN(CCn2ccc(Nc3ncc4c(n3)-c3c(nn(C)c3-c3ccccc3)C[C@H]4C)n2)CC1 (some centres unmarked) [Compound I-7]
62%	-1%	C[C@@H]1Cc2nn(C)c(-c3ccccc3)c2-c2nc(Nc3ccn(CCN4CCN(CC(=O)OC5CCOCC5)CC4)n3)ncc21 [Compound I-8]
73%	-15%	C[C@@H]1Cc2nn(C)c(-c3ccccc3)c2-c2nc(Nc3ccn(CCN4CCN(CC5CCCO5)CC4)n3)ncc21 (some centres unmarked) [Compound I-9]
56%	-2%	COCCN1CCN(CCn2ccc(Nc3ncc4c(n3)-c3c(nn(C)c3-c3ccccc3)C[C@H]4C)n2)CC1 [Compound I-11]
